Laboratory results taken from PubChem BioAssay AID1259407 (Chemical Carcinogenesis Research Information System (CCRIS), 2018).
Calls of active or inactive are those of the source. How the calls were made is not given here.

Test system: CCRIS mutagenicity, Ames/micronucleus/aberration tests
Assay: CCRIS mutagenicity studies
[1] = Test System: AMES SALMONELLA TYPHIMURIUM, Strain/Indicator: TA98, Metabolic Activation: HAMSTER, LIVER, S-9, AROCLOR 1254 (10%), Method: PREINCUBATION
[2] = Test System: AMES SALMONELLA TYPHIMURIUM, Strain/Indicator: TA98, Metabolic Activation: NONE, Method: PREINCUBATION
[3] = Test System: AMES SALMONELLA TYPHIMURIUM, Strain/Indicator: TA98, Metabolic Activation: RAT, LIVER, S-9, AROCLOR 1254 (10%), Method: PREINCUBATION
[4] = Test System: AMES SALMONELLA TYPHIMURIUM, Strain/Indicator: TA100, Metabolic Activation: HAMSTER, LIVER, S-9, AROCLOR 1254 (10%), Method: PREINCUBATION
[5] = Test System: AMES SALMONELLA TYPHIMURIUM, Strain/Indicator: TA100, Metabolic Activation: NONE, Method: PREINCUBATION
[6] = Test System: AMES SALMONELLA TYPHIMURIUM, Strain/Indicator: TA100, Metabolic Activation: RAT, LIVER, S-9, AROCLOR 1254 (10%), Method: PREINCUBATION
[7] = Test System: AMES SALMONELLA TYPHIMURIUM, Strain/Indicator: TA1535, Metabolic Activation: HAMSTER, LIVER, S-9, AROCLOR 1254 (10%), Method: PREINCUBATION
[8] = Test System: AMES SALMONELLA TYPHIMURIUM, Strain/Indicator: TA1535, Metabolic Activation: NONE, Method: PREINCUBATION
[9] = Test System: AMES SALMONELLA TYPHIMURIUM, Strain/Indicator: TA1535, Metabolic Activation: RAT, LIVER, S-9, AROCLOR 1254 (10%), Method: PREINCUBATION
[10] = Test System: AMES SALMONELLA TYPHIMURIUM, Strain/Indicator: TA1537, Metabolic Activation: HAMSTER, LIVER, S-9, AROCLOR 1254 (10%), Method: PREINCUBATION
[11] = Test System: AMES SALMONELLA TYPHIMURIUM, Strain/Indicator: TA1537, Metabolic Activation: NONE, Method: PREINCUBATION
[12] = Test System: AMES SALMONELLA TYPHIMURIUM, Strain/Indicator: TA1537, Metabolic Activation: RAT, LIVER, S-9, AROCLOR 1254 (10%), Method: PREINCUBATION
[13] = Test System: AMES SALMONELLA TYPHIMURIUM, Strain/Indicator: TA100, Metabolic Activation: NONE, Method: STANDARD PLATE

CC(C)([CH2][Sn]([CH2]C(C)(C)c1ccccc1)([CH2]C(C)(C)c1ccccc1)[O][Sn]([CH2]C(C)(C)c1ccccc1)([CH2]C(C)(C)c1ccccc1)[CH2]C(C)(C)c1ccccc1)c1ccccc1
mutagenic call (End Point: In vitro chromosomal aberrations, Test System: Human lymphocytes, Metabolic Activation: None): inactive; negative
mutagenic call (End Point: In vitro chromosomal aberrations, Test System: Human lymphocytes, Metabolic Activation: Rat, Liver, S-9, Aroclor 1254): inactive; negative
mutagenic call (End Point: In vivo micronucleus, Test System: Bone marrow polychromatic erythrocytes, Species: Mouse, Strain/Sex: Crl:CD-1(ICR)BR/Male and female, Route: Oral): inactive; negative
mutagenic call (End Point: UDS, Test System: Rat primary hepatocytes, Metabolic Activation: None, Method: Autoradiography): inactive; negative
mutagenic call (Test System: Chinese hamster ovary cells, Strain/Indicator: CHO cells (HPRT)/6-Thioguanine, Metabolic Activation: None, Method: Standard plate): inactive; negative
mutagenic call (Test System: Chinese hamster ovary cells, Strain/Indicator: CHO cells (HPRT)/6-Thioguanine, Metabolic Activation: Rat, Liver, S-9, Aroclor 1254, Method: Standard plate): inactive; negative

Nc1ccc(/C=C/c2ccc(N)c(S(=O)(=O)O)c2)c(S(=O)(=O)O)c1
mutagenic call [1]: inactive; negative
mutagenic call [2]: inactive; negative
mutagenic call [3]: inactive; negative
mutagenic call [4]: inactive; negative
mutagenic call [5]: inactive; negative
mutagenic call [6]: inactive; negative
mutagenic call [7]: inactive; negative
mutagenic call [8]: inactive; negative
mutagenic call [9]: inactive; negative
mutagenic call [10]: inactive; negative
mutagenic call [11]: inactive; negative
mutagenic call [12]: inactive; negative

Cc1ccc(N=O)cc1[N+](=O)[O-]
mutagenic call (Test System: AMES SALMONELLA TYPHIMURIUM, Strain/Indicator: TA98, Metabolic Activation: NONE, Method: SUSPENSION/PLATE): inactive; negative
mutagenic call (Test System: AMES SALMONELLA TYPHIMURIUM, Strain/Indicator: TA98, Metabolic Activation: RAT, LIVER, S-9, PHENOBARBITAL AND 5,6-BENZOFLAVONE, Method: SUSPENSION/PLATE): inactive; negative
mutagenic call (Test System: AMES SALMONELLA TYPHIMURIUM, Strain/Indicator: TA100, Metabolic Activation: NONE, Method: SUSPENSION/PLATE): inactive; negative
mutagenic call (Test System: AMES SALMONELLA TYPHIMURIUM, Strain/Indicator: TA100, Metabolic Activation: RAT, LIVER, S-9, PHENOBARBITAL AND 5,6-BENZOFLAVONE, Method: SUSPENSION/PLATE): inactive; negative

O=C(OC1CCCCC1)c1ccccc1C(=O)OC1CCCCC1
mutagenic call [1]: inactive; negative
mutagenic call [2]: inactive; negative
mutagenic call [3]: inactive; negative
mutagenic call [4]: inactive; negative
mutagenic call [5]: inactive; negative
mutagenic call [6]: inactive; negative
mutagenic call [7]: inactive; negative
mutagenic call [8]: inactive; negative
mutagenic call [9]: inactive; negative
mutagenic call [10]: inactive; negative
mutagenic call [11]: inactive; negative
mutagenic call [12]: inactive; negative

COC1OC(=O)C(Cl)=C1C(Cl)Cl (centres undefined)
mutagenic call [13]: active; positive

O=[N+]([O-])c1cccc2c1oc1ccccc12
mutagenic call (Test System: AMES SALMONELLA TYPHIMURIUM, Strain/Indicator: TA98(1,8-DNP6), Metabolic Activation: NONE, Method: PREINCUBATION): active; positive
mutagenic call (Test System: AMES SALMONELLA TYPHIMURIUM, Strain/Indicator: TA98(1,8-DNP6), Metabolic Activation: NONE, Method: SUSPENSION): active; positive
mutagenic call (Test System: AMES SALMONELLA TYPHIMURIUM, Strain/Indicator: TA98(1,8-DNP6), Metabolic Activation: RAT, LIVER, S-9, PCB (5%), Method: PREINCUBATION): active; positive
mutagenic call (Test System: AMES SALMONELLA TYPHIMURIUM, Strain/Indicator: TA98(NR), Metabolic Activation: NONE, Method: PREINCUBATION): active; positive
mutagenic call (Test System: AMES SALMONELLA TYPHIMURIUM, Strain/Indicator: TA98(NR), Metabolic Activation: NONE, Method: SUSPENSION): active; positive
mutagenic call (Test System: AMES SALMONELLA TYPHIMURIUM, Strain/Indicator: TA98(NR), Metabolic Activation: RAT, LIVER, S-9 (10%), Method: PREINCUBATION): active; positive
mutagenic call (Test System: AMES SALMONELLA TYPHIMURIUM, Strain/Indicator: TA98(NR), Metabolic Activation: RAT, LIVER, S-9, 3-METHYLCHOLANTHRENE (10%), Method: PREINCUBATION): active; positive
mutagenic call (Test System: AMES SALMONELLA TYPHIMURIUM, Strain/Indicator: TA98(NR), Metabolic Activation: RAT, LIVER, S-9, BETA-NAPHTHOFLAVONE (10%), Method: PREINCUBATION): active; positive
mutagenic call (Test System: AMES SALMONELLA TYPHIMURIUM, Strain/Indicator: TA98(NR), Metabolic Activation: RAT, LIVER, S-9, PCB (5%), Method: PREINCUBATION): active; positive
mutagenic call (Test System: AMES SALMONELLA TYPHIMURIUM, Strain/Indicator: TA98(NR), Metabolic Activation: RAT, LIVER, S-9, PCB (10%), Method: PREINCUBATION): active; positive
mutagenic call (Test System: AMES SALMONELLA TYPHIMURIUM, Strain/Indicator: TA98(NR), Metabolic Activation: RAT, LIVER, S-9, PHENOBARBITAL (10%), Method: PREINCUBATION): active; positive
mutagenic call [2]: active; positive
mutagenic call (Test System: AMES SALMONELLA TYPHIMURIUM, Strain/Indicator: TA98, Metabolic Activation: NONE, Method: SUSPENSION): active; positive
mutagenic call (Test System: AMES SALMONELLA TYPHIMURIUM, Strain/Indicator: TA98, Metabolic Activation: RAT, LIVER, S-9, PCB (5%), Method: PREINCUBATION): active; positive
mutagenic call (Test System: AMES SALMONELLA TYPHIMURIUM, Strain/Indicator: TA98, Metabolic Activation: RAT, LIVER, S-9, PCB, Method: SUSPENSION): active; positive
mutagenic call [5]: inactive; negative
mutagenic call (Test System: AMES SALMONELLA TYPHIMURIUM, Strain/Indicator: TA100, Metabolic Activation: NONE, Method: SUSPENSION): active; positive
mutagenic call (Test System: AMES SALMONELLA TYPHIMURIUM, Strain/Indicator: TA100, Metabolic Activation: RAT, LIVER, S-9, PCB (5%), Method: PREINCUBATION): active; positive
mutagenic call (Test System: AMES SALMONELLA TYPHIMURIUM, Strain/Indicator: TA100, Metabolic Activation: RAT, LIVER, S-9, PCB, Method: SUSPENSION): active; positive

CC1(C(=O)Nc2ccccc2)CO1 (centres undefined)
mutagenic call (Test System: AMES SALMONELLA TYPHIMURIUM, Strain/Indicator: TA100, Metabolic Activation: MOUSE, LIVER, S-9, AROCLOR 1254, Method: STANDARD PLATE): active; positive
mutagenic call [13]: active; positive

[N-]=[N+]=NCc1ccccc1
mutagenic call (End Point: IN VITRO CHROMOSOMAL ABERRATIONS, Test System: CHL CELLS, Metabolic Activation: NONE): inactive; negative
mutagenic call (End Point: IN VITRO CHROMOSOMAL ABERRATIONS, Test System: CHL CELLS, Metabolic Activation: RAT, LIVER, S-9, SODIUM PHENOBARBITAL AND 5,6-BENZOFLAVONE): inactive; negative
mutagenic call (Test System: AMES SALMONELLA TYPHIMURIUM, Strain/Indicator: TA100, Metabolic Activation: RAT, LIVER, S-9, PCB, Method: PREINCUBATION): active; positive
